Laboratory results from patent US4264492A, “Enkephalin-like compounds in bovine adrenal medulla” (Hoffmann-La Roche Inc., priority 1979, dated 1981).
Values joined by “and” are separate entries in the source; they are usually repeats but may differ in a detail not shown here. Equal values may be shown once.

Legend:
mice [1] = assay: Analgesic assay, tail flick response after intracerebral ventrical injection; format: in vivo; conditions: individual mouse
[2] = system: N-terminal directed Met-enkephalin antibody; assay: Radioimmunoassay, N-terminal directed antibody; format: binding; conditions: fractions from RP-18; 1.3 g wet weight of chromaffin granules isolated from 30 g of adrenal medulla
Protocol: (§1) Bovine adrenal glands were obtained from a local slaughterhouse and stored on ice until used (2 hrs). The medullas were dissected out and chromaffin granules prepared by the procedure of Smith and Winkler [Biochem. J., 103, & 80 (1967)]. The isolated chromaffin granules or whole adrenal medullas were homogenized (10:1 V/W) in 1 M acetic acid, 20 mM HCl containing 1μg/ml PMSF and pepstatin. The procedures for extraction, Sephadex column elution and trypsin digestion have been described [Lewis, R. V. et al., Proc. Nat'l. Acad. Sci., U.S.A. 75, & 021 (1978)]. The radioreceptor assay employed neuroblastoma x glioma hybrid cells [Gerber, L. D. et al., Brain Res. 1515, 117 (1978)] with ^3 H-Leuenkephalin as the competing ligand. Radioimmunoassays were performed using a C-terminal directed Leu-enkephalin antibody and a N-terminal directed Met-enkephalin antibody. The characteristics of these antibodies have been described previously [Lewis. R. V., et al. Biochem. Biophys. Res. Commun. 89, 822 (1979)] .
(§2) In order to determine whether fractions 6,7, and 16 were indeed separate entities differing chromatographically from the enkephalins, these fractions were lyophilized, redissolved and rechromatographed. Each opioid peptide eluted at its original position. […]

rats = conditions: intracerebraventricular or intravenous administration to rats; cited from earlier work
[3] = system: C-terminal directed Leu-enkephalin antibody; assay: Radioimmunoassay, C-terminal directed antibody; format: binding; conditions: fractions from RP-18; 1.3 g wet weight of chromaffin granules isolated from 30 g of adrenal medulla
Protocol: as §1, §2

mice [4] = conditions: intracerebraventricular or intravenous administration to mice; cited from earlier work

Substance | Response (mice [1]; Dose 4.5nm, Volume 5nl) | Tail flick response, Post Injection Time 20 (mice [1]; Dose 4.5nm, Volume 5nl) | Radioimmunoassay N-Terminal [2] [nmoles/fraction] | analgesia (rats) | Radioimmunoassay C-Terminal [3] [nmoles/fraction] | analgesia (mice [4]) | Response (mice [1]; Dose 120 nm, Volume 10nl.) | Tail flick response, Post Injection Time 10 (mice [1]; Dose 120 nm, Volume 10nl.) | Tail flick response, Post Injection Time 2 min. (mice [1]; Dose 120 nm, Volume 10nl.)
Beta-endorphin (YGGFMTSEKSQTPLVTLFKNAIIKNAYKKGE; Beta-endorphin; UniProt P01189 237-267, looked up) | Pos. and Neg. | 8 |  |  |  |  |  |  | 
Leu-enkephalin [Leu-enk (std)] |  |  | 0.4 | weak and short lined anagesia | 1.0 | weak and short lined anagesia |  |  | 
methionine enkephalin [Met Enk] |  |  | 1.0 | weak and short lined anagesia | 0.03 | weak and short lined anagesia | Neg. | 6.3 and 5.9 and 5.0 | 4.0 and 4.7
